Laboratory results taken from patent US8202885B2, “Bridged six-membered ring compounds” (Actelion Pharmaceuticals Ltd., priority 2007, dated 2012).

Tested on: human Cav3.1 Cav3.2 or Cav3.3 channel
Test: In vitro assay T channel (FLIPR calcium fluorescence)
Format: cell-based
Settings: HEK293 cells expressing human Cav3.1, Cav3.2 or Cav3.3; 10 mM Ca2+-induced fluo-4 fluorescence; determined up to 10 μM; read-out: T channel antagonistic activity IC50
How it was run: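 HEK293 cells stably expressing human Cav3.1, Cav3.2 or Cav3.3 loaded with fluo-4 AM (3 μM), preincubated 3 min with antagonist, then stimulated with 10 mM Ca2+ in TEA-chloride/HEPES buffer pH 7.2. FLIPR fluorescence read every 2 s for 8 min; IC50 from peak area versus vehicle, tested up to 10 μM.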

SMILES	IC50 [µM]
CN(CCCc1nc2cc(Cl)c(Cl)cc2[nH]1)CC[C@]1(OC(=O)C2CC2)C[C@H]2CC[C@@H]1C=C2c1ccccc1 (relative stereo) [Example 27B, rac-Cyclopropanecarboxylic acid (1R*,2R*,4R*)-2-(2-{[3-(5,6-dichloro-1H-benzoimidazol-2-yl)-propyl]-methyl-amino}-ethyl)-5-phenyl-bicyclo[2.2.2]oct-5-en-2-yl ester]	4.73
CO[C@]1(c2ccccc2)C[C@H]2CC[C@@H]1C[C@]2(CCN(C)CCCc1nc2ccccc2[nH]1)OC(=O)C(C)C (relative stereo) [Example 76A, rac-Isobutyric acid (1R*,2R*,4R*,5R*)-2-(2-{[3-(1H-benzoimidazol-2-yl)-propyl]-methyl-amino}-ethyl)-5-methoxy-5-phenyl-bicyclo[2.2.2]oct-2-yl ester]	2.12
CC(C)C(=O)OC1(CCN(C)CCCc2nc3ccccc3[nH]2)CC2CCC1C1=C2CCc2ccccc21 (racemic) [Example 18A, rac-Isobutyric acid (1R*,3R*,4R*)-1,2,3,4,9,10-hexahydro-3-hydroxy-3-{N-methyl-N-(3-benzimidazol-2-ylpropyl)aminoethyl}-1,4-ethanophenanthrene ester]	2.05
CC(C)C(=O)O[C@@]1(CCN(C)CCCc2nc3ccccc3[nH]2)C[C@H]2CC[C@@H]1C=C2c1ccccc1 (relative stereo) [Example 1A, rac-Isobutyric acid (1R*,2R*,4R*)-2-(2-{[3-(1H-Benzoimidazol-2-yl)-propyl]-methyl-amino}-ethyl)-5-phenyl-bicyclo[2.2.2]oct-5-en-2-yl ester]	4.94
COc1ccc(OC)c2[nH]c(CCCN(C)CCC3(OC(=O)C(C)C)CC4CCC3C=C4c3ccccc3)nc12 [Example 67A, Isobutyric acid (1R,2R,4R)-2-(2-{[3-(4,7-dimethoxy-1H-benzoimidazol-2-yl)-propyl]-methyl-amino}-ethyl)-5-phenyl-bicyclo[2.2.2]oct-5-en-2-yl ester or Isobutyric acid (1S,2S,4S)-2-(2-{[3-(4,7-dimethoxy-1H-benzoimidazol-2-yl)-propyl]-methyl-amino}-ethyl)-5-phenyl-bicyclo[2.2.2]oct-5-en-2-yl ester]	0.778
COC(=O)c1ccc2[nH]c(CCCN(C)CC[C@]3(OC(=O)C(C)C)C[C@H]4CC[C@@H]3C=C4c3ccccc3)nc2c1 (relative stereo) [Example 20A, rac-2-(3-{[2-((1R*,2R*,4R*)-2-Isobutyryloxy-5-phenyl-bicyclo[2.2.2]oct-5-en-2-yl)-ethyl]-methyl-amino}-propyl)-1H-benzoimidazole-5-carboxylic acid methyl ester]	4.57
COc1ccc(C2=C[C@H]3CC[C@@H]2C[C@]3(CCN(C)CCCc2nc3ccccc3[nH]2)OC(=O)C(C)C)cc1 (relative stereo) [Example 22A, rac-Isobutyric acid (1R*,2R*,4R*)-2-(2-{[3-(1H-benzoimidazol-2-yl)-propyl]-methyl-amino}-ethyl)-5-(4-methoxy-phenyl)-bicyclo[2.2.2]oct-5-en-2-yl ester]	6.93
COc1cccc2[nH]c(CCCN(C)CC[C@]3(OC(=O)C4CCC4)C[C@H]4CC[C@@H]3C=C4c3ccccc3)nc12 (relative stereo) [Example 26B, rac-Cyclobutanecarboxylic acid (1R*,2R*,4R*)-2-(2-{[3-(4-methoxy-1H-benzoimidazol-2-yl)-propyl]-methyl-amino}-ethyl)-5-phenyl-bicyclo[2.2.2]oct-5-en-2-yl ester]	> 10
COc1ccccc1C1=CC2CCC1CC2(O)CCN(C)CCCc1nc2ccccc2[nH]1 (racemic) [Example 23, rac-(1R*,2R*,4R*)-2-(2-{[3-(1H-Benzoimidazol-2-yl)-propyl]-methyl-amino}-ethyl)-5-(2-methoxy-phenyl)-2-yl-bicyclo[2.2.2]oct-5-en-2-ol]	3.31
CC(C)C(=O)O[C@@]1(CCN(C)CCCc2nc3c(C(F)(F)F)cc(C(F)(F)F)cc3[nH]2)C[C@H]2CC[C@@H]1C=C2c1ccccc1 (relative stereo) [Example 62A, rac-Isobutyric acid (1R*,2R*,4R*)-2-(2-{[3-(4,6-bis-trifluoromethyl-1H-benzoimidazol-2-yl)-propyl]-methyl-amino}-ethyl)-5-phenyl-bicyclo[2.2.2]oct-5-en-2-yl ester]	0.469
CN(CCCc1cnc2occc2c1)CC[C@]1(O)C[C@H]2CC[C@@H]1C=C2c1ccccc1 (relative stereo) [Example 41, rac-(1R*,2R*,4R*)-2-{2-[(3-Furo[2,3-b]pyridin-5-yl-propyl)-methyl-amino]-ethyl}-5-phenyl-bicyclo[2.2.2]oct-5-en-2-ol]	> 10
CC(C)C(=O)O[C@@]1(CCN(C)CCCc2nc3ccccc3[nH]2)C[C@H]2CC[C@@H]1C=C2c1cccnc1 (relative stereo) [Example 9A, rac-Isobutyric acid (1R*,2R*,4R*)-2-(2-{[3-(1H-benzoimidazol-2-yl)-propyl]-methyl-amino}-ethyl)-5-pyridin-3-yl-bicyclo[2.2.2]oct-5-en-2-yl ester]	2.34
CN(CCCc1nc2ccccc2[nH]1)CC[C@]1(O)C[C@H]2CC[C@@H]1C=C2c1cccc(F)c1 (relative stereo) [Example 7, rac-(1R*,2R*,4R*)-2-(2-{[3-(1H-Benzoimidazol-2-yl)-propyl]-methyl-amino}-ethyl)-5-(3-fluoro-phenyl)-bicyclo[2.2.2]oct-5-en-2-ol]	4.4
CN(CCCc1nc2cccc(O)c2[nH]1)CC[C@]1(O)C[C@H]2CC[C@@H]1C=C2c1ccccc1 (relative stereo) [Example 34, rac-(1R*,2R*,4R*)-2-(3-{[2-(2-Hydroxy-5-phenyl-bicyclo[2.2.2]oct-5-en-2-yl)-ethyl]-methyl-amino}-propyl)-3H-benzoimidazol-4-ol]	2.56
CC(C)C(=O)O[C@@]1(CCN(C)CCCc2cncc3ccccc23)C[C@H]2CC[C@@H]1C=C2c1ccccc1 (relative stereo) [Example 48A, rac-Isobutyric acid (1R*,2R*,4R*)-2-{2-[(3-isoquinolin-4-yl-propyl)-methyl-amino]-ethyl}-5-phenyl-bicyclo[2.2.2]oct-5-en-2-yl ester]	> 10
Cc1ccccc1C1=C[C@H]2CC[C@@H]1C[C@]2(CCN(C)CCCc1nc2ccccc2[nH]1)OC(=O)C(C)C (relative stereo) [Example 4A, rac-Isobutyric acid (1R*,2R*,4R*)-2-(2-{[3-(1H-benzoimidazol-2-yl)-propyl]-methyl-amino}-ethyl)-5-(2-methyl-phenyl)-bicyclo[2.2.2]oct-5-en-2-yl ester]	4.22
CC(C)C(=O)O[C@@]1(CCN(C)CCCc2nc3ccccc3[nH]2)C[C@H]2CC[C@@H]1C=C2c1cccc(F)c1 (relative stereo) [Example 7A, rac-Isobutyric acid (1R*,2R*,4R*)-2-(2-{[3-(1H-benzoimidazol-2-yl)-propyl]-methyl-amino}-ethyl)-5-(3-fluoro-phenyl)-bicyclo[2.2.2]oct-5-en-2-yl ester]	3.14
CN(CCCc1nc2ccccc2[nH]1)CC[C@]1(O)C[C@H]2CC[C@@H]1C=C2c1ccccc1 (relative stereo) [Example 1, rac-(1R*,2R*,4R*)-2-(2-{[3-(1H-Benzoimidazol-2-yl)-propyl]-methyl-amino}-ethyl)-5-phenyl-bicyclo[2.2.2]oct-5-en-2-ol]	2.29
Cc1cccc(C2=C[C@H]3CC[C@@H]2C[C@@]3(O)CCN(C)CCCc2nc3ccccc3[nH]2)c1 (relative stereo) [Example 5, rac-(1R*,2R*,4R*)-2-(2-{[3-(1H-Benzoimidazol-2-yl)-propyl]-methyl-amino}-ethyl)-5-(3-methyl-phenyl)-bicyclo[2.2.2]oct-5-en-2-ol]	8.42
COc1ccc(OC)c2[nH]c(CCCN(C)CC[C@]3(OC(=O)C(C)C)C[C@H]4CCC[C@@H]3C=C4c3ccccc3)nc12 (relative stereo) [Example 69A, rac-Isobutyric acid (1R*,5R*,6R*)-6-(2-{[3-(4,7-dimethoxy-1H-benzoimidazol-2-yl)-propyl]-methyl-amino}-ethyl)-8-phenyl-bicyclo[3.2.2]non-8-en-6-yl ester]	0.727
CC(C)C(=O)O[C@@]1(CCN(C)CCCc2nc3ccccc3[nH]2)C[C@H]2CC[C@@H]1C[C@@]21OCc2ccccc21 (relative stereo) [Example 79A, rac-Isobutyric acid (1R*,2R*,4R*,5R*)-5-(2-{[3-(1H-benzoimidazol-2-yl)-propyl]-methyl-amino}-ethyl)-3′H-spiro(bicyclo[2.2.2]octane-2,1′-isobenzofuran)-5-yl ester]	9.47
CN(CCCc1nc2ccccc2[nH]1)CC[C@]1(O)C[C@H]2CC[C@@H]1C=C2c1nccs1 (relative stereo) [Example 24, rac-(1R*,2R*,4R*)-2-(2-{[3-(1H-Benzoimidazol-2-yl)-propyl]-methyl-amino}-ethyl)-5-thiazol-2-yl-bicyclo[2.2.2]oct-5-en-2-ol]	> 10
CN(CCCc1nc2cc(Cl)c(Cl)cc2[nH]1)CC[C@]1(O)C[C@H]2CC[C@@H]1C=C2c1ccccc1 (relative stereo) [Example 27, rac-(1R*,2R*,4R*)-2-(2-{[3-(5,6-Dichloro-1H-benzoimidazol-2-yl)-propyl]-methyl-amino}-ethyl)-5-phenyl-bicyclo[2.2.2]oct-5-en-2-ol]	> 10
COc1ccc(C)c2nc(CCCN(C)CC[C@]3(OC(=O)C(C)C)C[C@H]4CCC[C@@H]3C=C4c3ccccc3)[nH]c12 (relative stereo) [Example 66A, rac-Isobutyric acid (1R*,5R*,6R*)-6-(2-{[3-(7-methoxy-4-methyl-1H-benzoimidazol-2-yl)-propyl]-methyl-amino}-ethyl)-8-phenyl-bicyclo[3.2.2]non-8-en-6-yl ester]	0.68
